45 molecules from the Kinase Knowledgebase extract (Sharma et al. 2016) can be followed below.

For experiment [1], the target named is PIK3CA (human) (UniProt P42336). Description: Enzyme Assay.
Experiment [2] shares this target. Description: Assessment of Cell Proliferation in MDA-MB-361.1 Cells. Conditions: mda-mb-361.
The target is the same in experiment [3]. Kind of experiment: Assessment of Cell Proliferation in PC3 Cells. Conditions: pc-3.

PIK3CA (human), sequence (P42336 whole entry, looked up): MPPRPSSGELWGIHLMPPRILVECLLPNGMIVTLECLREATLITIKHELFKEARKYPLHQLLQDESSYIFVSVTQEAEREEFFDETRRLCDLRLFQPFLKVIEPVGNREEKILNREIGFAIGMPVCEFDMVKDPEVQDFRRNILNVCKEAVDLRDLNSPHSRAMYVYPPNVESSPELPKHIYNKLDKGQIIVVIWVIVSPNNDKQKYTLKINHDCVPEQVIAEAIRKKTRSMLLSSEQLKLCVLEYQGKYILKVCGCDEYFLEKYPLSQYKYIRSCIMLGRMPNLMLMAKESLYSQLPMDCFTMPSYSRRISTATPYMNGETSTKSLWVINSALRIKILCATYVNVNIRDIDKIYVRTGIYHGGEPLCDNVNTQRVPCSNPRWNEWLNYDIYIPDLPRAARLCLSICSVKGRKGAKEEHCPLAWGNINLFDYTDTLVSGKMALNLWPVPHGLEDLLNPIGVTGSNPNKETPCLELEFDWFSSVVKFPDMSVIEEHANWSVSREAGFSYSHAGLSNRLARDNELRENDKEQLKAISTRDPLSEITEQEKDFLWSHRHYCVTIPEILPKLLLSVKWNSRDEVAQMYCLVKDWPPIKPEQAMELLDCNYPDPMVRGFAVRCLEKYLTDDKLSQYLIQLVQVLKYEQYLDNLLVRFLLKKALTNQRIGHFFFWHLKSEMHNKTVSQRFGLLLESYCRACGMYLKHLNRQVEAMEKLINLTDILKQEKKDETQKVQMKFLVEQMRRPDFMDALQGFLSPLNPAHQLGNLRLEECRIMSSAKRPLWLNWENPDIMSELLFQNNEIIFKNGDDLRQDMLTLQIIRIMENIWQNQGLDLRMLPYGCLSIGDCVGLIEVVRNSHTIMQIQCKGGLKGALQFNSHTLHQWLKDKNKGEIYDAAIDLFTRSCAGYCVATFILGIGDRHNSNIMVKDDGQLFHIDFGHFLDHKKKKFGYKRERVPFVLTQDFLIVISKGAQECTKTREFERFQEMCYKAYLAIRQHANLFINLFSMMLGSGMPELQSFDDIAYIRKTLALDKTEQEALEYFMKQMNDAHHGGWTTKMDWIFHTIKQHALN

`CC1(C)OCCn2c1nc1c(N3CCOCC3)nc(-c3cccc4[nH]ncc34)nc12`: at PIK3CA (human) [1], the IC50 turned out to be 19.8 nM. In turn, `Nc1ncc(-c2nc(N3CCOCC3)c3nc4n(c3n2)CCOC42COC2)cn1` displayed an IC50 at PIK3CA (human) [1] of 2.45 nM. Molecule `Nc1ncc(-c2nc(N3CCOCC3)c3c(n2)N2CCC[C@H]2CO3)cn1` showed an IC50 on PIK3CA (human) [1] of 77.9 nM. Moreover, the concentration giving a half-maximal response (EC50) on PIK3CA (human) [2] came to 3200 nM; on PIK3CA (human) [3], 2000 nM. For `Nc1cc(C(F)(F)F)c(-c2nc(N3CCOCC3)c3nc4n(c3n2)CCOC4)cn1`, at PIK3CA (human) [1], the IC50 is 11.2 nM.

In the case of `Nc1ncc(-c2nc(N3CCOCC3)c3nc4n(c3n2)CCCO4)cn1`, the IC50 against PIK3CA (human) [1] amounted to 6.84 nM.

In turn, `CC[C@]1(C)OCCn2c1nc1c(N3CCOCC3)nc(-c3cnc(N)nc3)nc12` gave an IC50 on PIK3CA (human) [1] of 3.11 nM. On to `Nc1ccc(-c2nc(N3CCOCC3)c3nc4n(c3n2)CCCC4)cn1`, for which the IC50 against PIK3CA (human) [1] worked out at 50.7 nM. This IC50 is about 16-fold higher than that of the molecule before.

Turning to `CC1(C)OCCn2c1nc1c(N3CCOCC3)nc(-c3cncc(C(N)=O)c3)nc12`, the IC50 at PIK3CA (human) [1] stood at 35.2 nM.

On PIK3CA (human) [1], `CC1(C)OCCn2c1nc1c(N3CCOCC3)nc(-c3ccccc3NS(C)(=O)=O)nc12` had an IC50 of 638 nM. Turning to `CC1(C)OCCn2c1nc1c(N3CCOCC3)nc(-c3ccnc(N)c3)nc12`, the 50% inhibitory concentration (IC50) on PIK3CA (human) [1] was determined as 685 nM. Still for that read-out and setting: as for `CC1(C)OCCn2c1nc1c(N3CCOCC3)nc(-c3cccc(O)c3)nc12`, the figure is 4.58 nM; as for `CC1(C)OCCn2c1nc1c(N3CCOCC3)nc(-c3cnc4[nH]ccc4c3)nc12`, 14 nM; as for `CC1NC(=O)Cn2c1nc1c(N3CCOCC3)nc(-c3cnc(N)nc3)nc12` (centres undefined), 4.28 nM. The same measure, in the same setting: the figure for `CC1(C)OCCn2c1nc1c(N3CCOCC3)nc(-c3ccc(N)nc3)nc12` is 18.6 nM. For `CC1c2nc3c(N4CCOCC4)nc(-c4cnc(N)nc4)nc3n2CCN1C` (centres undefined), on PIK3CA (human) [1], the IC50 amounted to 6.89 nM. In addition, the EC50 stood at 889 nM on PIK3CA (human) [2] and 1900 nM at PIK3CA (human) [3]. On PIK3CA (human) [1], `CN1CCn2c(nc3c(N4CCOCC4)nc(-c4cnc(N)nc4)nc32)C1=O` had an IC50 of 21.5 nM.

`CNC(=O)Nc1ccc(-c2nc(N3CCOCC3)c3nc4n(c3n2)CCOC4(C)C)cc1` had an IC50 against PIK3CA (human) [1] of 6.71 nM.

`Nc1ncc(-c2nc(N3CCOCC3)c3nc4n(c3n2)CCO[C@H]4C(F)(F)F)cn1` returned an IC50 at PIK3CA (human) [1] of 3.57 nM. Further, the EC50 on PIK3CA (human) [2] was 424 nM; on PIK3CA (human) [3], 697 nM. Consider `Nc1ccc(-c2nc(N3CCOCC3)c3nc4n(c3n2)CCOC4C(F)(F)F)cn1` (centres undefined), for which the IC50 against PIK3CA (human) [1] was 45.2 nM.

On PIK3CA (human) [1], `CC(=O)Nc1ccc(-c2nc(N3CCOCC3)c3nc4n(c3n2)CCOC4(C)C)cn1` yielded an IC50 of 49 nM. Take `CC1(C)OCCn2c1nc1c(N3CCOCC3)nc(-c3ccc(N)cn3)nc12`: the EC50 at PIK3CA (human) [2] and on PIK3CA (human) [3] was 10000 nM in each case. With `CN(C)c1cnc(-c2nc(N3CCOCC3)c3nc4n(c3n2)CCOC4(C)C)cn1`, the concentration for a half-maximal effect (EC50) on PIK3CA (human) [2] and at PIK3CA (human) [3] was 10000 nM each time. In the case of `CC(C)Cn1cc(-c2nc(N3CCOCC3)c3nc4n(c3n2)CCOC4(C)C)cn1`, the EC50 on PIK3CA (human) [2] and at PIK3CA (human) [3] was 10000 nM each time.

For the molecule `CC1(C)OCCn2c1nc1c(N3CCOCC3)nc(-c3ccc(N)cc3)nc12`, the IC50 against PIK3CA (human) [1] amounted to 541 nM. The same measure, in the same setting: the figure for `Nc1ncc(-c2nc(N3CCOCC3)c3nc4n(c3n2)CCO[C@@H]4C(F)(F)F)cn1` is 3.45 nM. Turning to `CC1(C)OCCn2c1cc1c(N3CCOCC3)nc(-c3cnc(N)nc3)nc12`, on PIK3CA (human) [1], the IC50 came to 0.831 nM. The EC50 amounted to 94 nM on PIK3CA (human) [2] and 185 nM on PIK3CA (human) [3]. On PIK3CA (human) [1], `CC1(C)OCCn2c1nc1c(N3CCOCC3)nc(-c3cnc(N)cc3C(F)(F)F)nc12` came in with an IC50 of 3.89 nM. For `Oc1cccc(-c2nc(N3CCOCC3)c3nc4n(c3n2)CCOC4C(F)(F)F)c1` (centres undefined), on PIK3CA (human) [1], the IC50 was determined as 79.7 nM. In addition, the EC50 was 920 nM at PIK3CA (human) [2] and 1100 nM at PIK3CA (human) [3]. Taken in the same sequence, the figures for `FC(F)(F)C1OCCn2c1nc1c(N3CCOCC3)nc(-c3cccc4[nH]ncc34)nc12` (centres undefined) were 45.2 nM, 4400 nM and 6900 nM. For the molecule `Nc1ncc(-c2nc(N3CCOCC3)c3nc4n(c3n2)CCCC4)cn1`, the IC50 at PIK3CA (human) [1] amounted to 3.88 nM.

In the case of `CCNC(=O)Nc1ccc(-c2nc(N3CCOCC3)c3nc4n(c3n2)CCOC4(C)C)cc1`, the IC50 against PIK3CA (human) [1] came to 41.7 nM. Same read-out and setting: the figure for `CC[C@@]1(C)OCCn2c1nc1c(N3CCOCC3)nc(-c3cnc(N)nc3)nc12` is 5.96 nM. For `CCNC(=O)Nc1ccc(-c2nc(N3CCOCC3)c3c(n2)C2(C)CCOC2N3C)cc1` (centres undefined), the IC50 against PIK3CA (human) [1] turned out to be 2100 nM. Besides, the EC50 on PIK3CA (human) [2] was found to be 315 nM; on PIK3CA (human) [3] it was 208 nM. Turning to `CC(=O)Nc1ncc(-c2nc(N3CCOCC3)c3nc4n(c3n2)CCOC4(C)C)cn1`, the IC50 at PIK3CA (human) [1] was 242 nM. As for `CC1(C)CN(c2nc(-c3cnc(N)nc3)nc3c2nc2n3CCOC2(C)C)CCO1`, the IC50 on PIK3CA (human) [1] was found to be 201 nM. Moreover, the EC50 was 1500 nM on PIK3CA (human) [2] and 1400 nM on PIK3CA (human) [3]. In the case of `CC1(C)OCCc2c1sc1c(N3CCOCC3)nc(-c3cnc(N)nc3)nc21`, at PIK3CA (human) [1], the IC50 was found to be 1 nM. In addition, the EC50 at PIK3CA (human) [2] is 237 nM; on PIK3CA (human) [3], 215 nM. For the molecule `Nc1ncc(-c2nc(N3CCOCC3)c3nc4n(c3n2)CCC4)cn1`, the IC50 at PIK3CA (human) [1] was 8.26 nM. In turn, `Nc1ncc(-c2nc(N3CCOCC3)c3nc4n(c3n2)CCC2(CC2)O4)cn1` yielded an IC50 against PIK3CA (human) [1] of 1.37 nM. In the case of `CC1(C)OCCn2c1nc1c(N3CCOCC3)nc(-c3cn[nH]c3)nc12`, at PIK3CA (human) [1], the IC50 was determined as 382 nM.

In the case of `CC1=COC(C)(C)c2nc3c(N4CCOCC4)nc(-c4cnc(N)nc4)nc3n21`, the IC50 at PIK3CA (human) [1] worked out at 4.73 nM.

For `CC1(C)OCCn2c1nc1c(N3C[C@@H]4C[C@H]3CO4)nc(-c3cnc(N)nc3)nc12`, the half-maximal inhibitory concentration (IC50) against PIK3CA (human) [1] was determined as 394 nM. Moreover, the figures for the EC50 at PIK3CA (human) [2] and on PIK3CA (human) [3] were 3400 nM and 3600 nM, respectively. Take `CC1(C)CCn2c(nc3c(N4CCOCC4)nc(-c4cnc(N)nc4)nc32)O1`: at PIK3CA (human) [1], the IC50 was 5.09 nM. The EC50 on PIK3CA (human) [2] was 958 nM; on PIK3CA (human) [3], 1800 nM. Molecule `CC(C)NC(=O)Nc1ccc(-c2nc(N3CCOCC3)c3nc4n(c3n2)CCOC4(C)C)cc1` came in with an IC50 at PIK3CA (human) [1] of 337 nM. The results for the EC50 on PIK3CA (human) [2] and at PIK3CA (human) [3] were 1200 nM and 1300 nM, respectively. `C[C@@H]1CN(c2nc(-c3cnc(N)nc3)nc3c2nc2n3CCOC2(C)C)C[C@H](C)O1` registered an IC50 against PIK3CA (human) [1] of 14 nM. Further, the EC50 at PIK3CA (human) [2] was 3100 nM; on PIK3CA (human) [3], 3800 nM.

Regarding `Nc1ncc(-c2nc(N3CCOCC3)c3nc4n(c3n2)CCOC4)cn1`, the IC50 against PIK3CA (human) [1] turned out to be 4.32 nM. This counts as single-digit nanomolar.
